Experiments:
Test in all cases: KINOMEscan competition binding
Details in all cases: compound 10.0 µM
MAPK1 (human) = MAPK1 (human) (UniProt P28482)
HUNK (human) = HUNK (human) (UniProt P57058)
MARK1 (human) = MARK1 (human) (UniProt Q9P0L2)
MAPKAPK2 (human) = MAPKAPK2 (human) (UniProt P49137)
RIOK1 (human) = RIOK1 (human) (UniProt Q9BRS2)
PLK1 (human) = PLK1 (human) (UniProt P53350)
DDR2 (human) = DDR2 (human) (UniProt Q16832)
TAOK1 (human) = TAOK1 (human) (UniProt Q7L7X3)
RPS6KA4 KD2 (human) = RPS6KA4 KD2 (human) (UniProt O75676)
MAP2K5 (human) = MAP2K5 (human) (UniProt Q13163)
MYLK4 (human) = MYLK4 (human) (UniProt Q86YV6)
TEC (human) = TEC (human) (UniProt P42680)
DYRK1B (human) = DYRK1B (human) (UniProt Q9Y463)
PIK3C2G (human) = PIK3C2G (human) (UniProt O75747)
DMPK (human) = DMPK (human) (UniProt Q09013)
SGK110 (human) = SGK110 (human) (UniProt P0C264)
MARK3 (human) = MARK3 (human) (UniProt P27448)
[1] = system: ABL1 (human), P00519 [Y253F]
ICK (human) = ICK (human) (UniProt Q9UPZ9)
TGFBR2 (human) = TGFBR2 (human) (UniProt P37173)
TGFBR2 (human), sequence (P37173 whole entry, looked up): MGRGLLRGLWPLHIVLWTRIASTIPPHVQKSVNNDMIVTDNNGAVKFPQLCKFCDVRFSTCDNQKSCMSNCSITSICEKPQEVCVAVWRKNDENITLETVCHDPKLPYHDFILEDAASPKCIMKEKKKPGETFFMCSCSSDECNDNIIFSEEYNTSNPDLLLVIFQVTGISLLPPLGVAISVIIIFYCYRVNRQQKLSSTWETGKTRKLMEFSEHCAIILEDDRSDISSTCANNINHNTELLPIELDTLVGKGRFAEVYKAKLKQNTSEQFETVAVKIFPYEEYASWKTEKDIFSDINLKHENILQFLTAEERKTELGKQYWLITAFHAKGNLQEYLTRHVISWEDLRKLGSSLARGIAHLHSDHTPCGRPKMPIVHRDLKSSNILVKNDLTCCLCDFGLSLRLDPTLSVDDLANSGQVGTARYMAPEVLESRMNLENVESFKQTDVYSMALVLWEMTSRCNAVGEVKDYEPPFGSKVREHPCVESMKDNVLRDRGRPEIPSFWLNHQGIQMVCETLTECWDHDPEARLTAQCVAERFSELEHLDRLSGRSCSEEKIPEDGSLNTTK

SGK3 (human) = SGK3 (human) (UniProt Q96BR1)
SGK3 (human), sequence (Q96BR1 whole entry, looked up): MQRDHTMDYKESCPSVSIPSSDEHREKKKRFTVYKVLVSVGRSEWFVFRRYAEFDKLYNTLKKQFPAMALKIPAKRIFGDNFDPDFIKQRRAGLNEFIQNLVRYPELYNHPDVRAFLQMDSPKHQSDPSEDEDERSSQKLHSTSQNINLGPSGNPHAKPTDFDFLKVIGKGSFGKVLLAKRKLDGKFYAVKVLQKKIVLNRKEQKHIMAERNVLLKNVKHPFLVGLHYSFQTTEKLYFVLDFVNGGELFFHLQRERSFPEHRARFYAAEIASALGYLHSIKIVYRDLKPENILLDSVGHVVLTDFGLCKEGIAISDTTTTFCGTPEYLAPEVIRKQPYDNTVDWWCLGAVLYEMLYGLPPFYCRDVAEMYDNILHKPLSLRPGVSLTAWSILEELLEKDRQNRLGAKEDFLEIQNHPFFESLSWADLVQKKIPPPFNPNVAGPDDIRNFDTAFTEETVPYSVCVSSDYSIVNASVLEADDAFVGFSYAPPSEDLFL

PHKG1 (human) = PHKG1 (human) (UniProt Q16816)
CDK17 (human) = CDK17 (human) (UniProt Q00537)
STK32A (human) = STK32A (human) (UniProt Q8WU08)
STK32A (human), sequence (Q8WU08 whole entry, looked up): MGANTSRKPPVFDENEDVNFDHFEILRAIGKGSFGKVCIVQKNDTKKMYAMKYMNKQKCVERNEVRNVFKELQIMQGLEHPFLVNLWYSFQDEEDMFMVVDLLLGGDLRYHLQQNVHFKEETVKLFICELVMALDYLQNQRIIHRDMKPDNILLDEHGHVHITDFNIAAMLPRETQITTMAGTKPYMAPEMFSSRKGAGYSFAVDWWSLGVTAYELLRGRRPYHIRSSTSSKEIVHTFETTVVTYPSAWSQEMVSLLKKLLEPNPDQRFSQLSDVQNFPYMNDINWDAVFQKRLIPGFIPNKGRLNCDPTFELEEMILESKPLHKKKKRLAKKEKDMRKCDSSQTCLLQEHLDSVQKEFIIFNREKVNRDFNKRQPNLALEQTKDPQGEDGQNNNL

BMPR1A (human) = BMPR1A (human) (UniProt P36894)
MARK4 (human) = MARK4 (human) (UniProt Q96L34)
STK38 (human) = STK38 (human) (UniProt Q15208)
CAMKK2 (human) = CAMKK2 (human) (UniProt Q96RR4)
MAP2K2 (human) = MAP2K2 (human) (UniProt P36507)
EIF2AK2 (human) = EIF2AK2 (human) (UniProt P19525)
STK16 (human) = STK16 (human) (UniProt O75716)
STK16 (human), sequence (O75716 whole entry, looked up): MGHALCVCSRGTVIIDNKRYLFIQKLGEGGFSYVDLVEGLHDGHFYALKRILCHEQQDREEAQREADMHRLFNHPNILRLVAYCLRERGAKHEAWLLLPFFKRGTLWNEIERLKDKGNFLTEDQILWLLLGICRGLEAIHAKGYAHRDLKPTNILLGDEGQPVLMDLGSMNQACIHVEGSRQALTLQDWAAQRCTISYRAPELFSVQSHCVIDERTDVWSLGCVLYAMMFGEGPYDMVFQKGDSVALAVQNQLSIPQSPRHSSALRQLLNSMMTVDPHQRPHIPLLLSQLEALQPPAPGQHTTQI

STK36 (human) = STK36 (human) (UniProt Q9NRP7)
FRK (human) = FRK (human) (UniProt P42685)
EPHB6 (human) = EPHB6 (human) (UniProt O15197)
TEK (human) = TEK (human) (UniProt Q02763)
LYN (human) = LYN (human) (UniProt P07948)
ABL2 (human) = ABL2 (human) (UniProt P42684)
ABL2 (human), sequence (P42684 whole entry, looked up): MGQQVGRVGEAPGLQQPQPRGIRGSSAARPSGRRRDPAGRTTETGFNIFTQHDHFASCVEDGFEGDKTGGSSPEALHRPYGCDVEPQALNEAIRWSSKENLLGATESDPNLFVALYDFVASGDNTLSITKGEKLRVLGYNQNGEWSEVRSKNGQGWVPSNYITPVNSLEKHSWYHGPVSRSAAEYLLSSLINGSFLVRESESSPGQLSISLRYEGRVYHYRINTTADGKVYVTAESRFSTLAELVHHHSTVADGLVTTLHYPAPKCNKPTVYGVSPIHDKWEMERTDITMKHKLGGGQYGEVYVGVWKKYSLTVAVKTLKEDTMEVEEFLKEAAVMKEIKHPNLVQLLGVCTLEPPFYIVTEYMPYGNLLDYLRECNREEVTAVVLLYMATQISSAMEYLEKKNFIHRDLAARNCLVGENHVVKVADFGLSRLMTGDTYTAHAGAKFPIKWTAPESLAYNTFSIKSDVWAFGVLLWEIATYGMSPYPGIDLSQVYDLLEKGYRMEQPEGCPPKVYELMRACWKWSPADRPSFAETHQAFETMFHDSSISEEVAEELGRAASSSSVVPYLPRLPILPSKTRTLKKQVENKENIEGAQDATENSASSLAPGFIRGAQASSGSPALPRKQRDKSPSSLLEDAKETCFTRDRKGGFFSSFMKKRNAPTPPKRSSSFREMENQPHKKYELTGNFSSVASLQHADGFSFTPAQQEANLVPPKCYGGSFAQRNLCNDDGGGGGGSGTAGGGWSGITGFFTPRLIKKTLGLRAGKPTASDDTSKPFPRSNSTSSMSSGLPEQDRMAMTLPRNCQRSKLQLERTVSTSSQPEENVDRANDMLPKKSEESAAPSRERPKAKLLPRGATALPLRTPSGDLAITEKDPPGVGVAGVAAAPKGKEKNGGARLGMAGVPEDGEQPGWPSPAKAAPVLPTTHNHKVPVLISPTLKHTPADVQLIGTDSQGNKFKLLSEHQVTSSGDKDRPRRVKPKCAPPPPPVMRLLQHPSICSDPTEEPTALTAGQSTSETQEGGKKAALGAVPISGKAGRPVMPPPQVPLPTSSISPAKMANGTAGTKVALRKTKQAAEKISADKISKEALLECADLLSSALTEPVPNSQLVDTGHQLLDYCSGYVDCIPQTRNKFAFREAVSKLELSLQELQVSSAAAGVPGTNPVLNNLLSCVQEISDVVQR

MAP3K15 (human) = MAP3K15 (human) (UniProt Q6ZN16)
FLT3 (human) = FLT3 (human) (UniProt P36888)
PRKCH (human) = PRKCH (human) (UniProt P24723)
PRKCH (human), sequence (P24723 whole entry, looked up): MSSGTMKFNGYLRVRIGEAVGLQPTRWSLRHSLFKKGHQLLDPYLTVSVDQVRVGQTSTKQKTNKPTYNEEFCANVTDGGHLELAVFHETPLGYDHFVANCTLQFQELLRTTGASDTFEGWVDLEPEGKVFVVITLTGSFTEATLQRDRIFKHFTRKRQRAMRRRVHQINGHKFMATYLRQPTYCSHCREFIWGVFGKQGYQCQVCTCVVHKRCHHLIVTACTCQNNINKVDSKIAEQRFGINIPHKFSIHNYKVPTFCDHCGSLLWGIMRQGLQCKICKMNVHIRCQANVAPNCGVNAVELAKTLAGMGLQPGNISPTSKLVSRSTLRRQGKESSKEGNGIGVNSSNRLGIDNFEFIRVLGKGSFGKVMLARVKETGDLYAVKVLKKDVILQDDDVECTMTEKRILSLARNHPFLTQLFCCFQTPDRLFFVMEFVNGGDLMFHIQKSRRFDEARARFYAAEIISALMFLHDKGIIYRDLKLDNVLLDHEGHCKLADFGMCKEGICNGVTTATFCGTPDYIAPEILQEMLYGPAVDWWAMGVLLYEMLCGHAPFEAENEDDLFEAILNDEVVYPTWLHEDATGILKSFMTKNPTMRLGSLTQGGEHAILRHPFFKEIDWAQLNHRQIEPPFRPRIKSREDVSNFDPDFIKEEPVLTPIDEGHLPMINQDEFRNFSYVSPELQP

DDR2 (human), sequence (Q16832 whole entry, looked up): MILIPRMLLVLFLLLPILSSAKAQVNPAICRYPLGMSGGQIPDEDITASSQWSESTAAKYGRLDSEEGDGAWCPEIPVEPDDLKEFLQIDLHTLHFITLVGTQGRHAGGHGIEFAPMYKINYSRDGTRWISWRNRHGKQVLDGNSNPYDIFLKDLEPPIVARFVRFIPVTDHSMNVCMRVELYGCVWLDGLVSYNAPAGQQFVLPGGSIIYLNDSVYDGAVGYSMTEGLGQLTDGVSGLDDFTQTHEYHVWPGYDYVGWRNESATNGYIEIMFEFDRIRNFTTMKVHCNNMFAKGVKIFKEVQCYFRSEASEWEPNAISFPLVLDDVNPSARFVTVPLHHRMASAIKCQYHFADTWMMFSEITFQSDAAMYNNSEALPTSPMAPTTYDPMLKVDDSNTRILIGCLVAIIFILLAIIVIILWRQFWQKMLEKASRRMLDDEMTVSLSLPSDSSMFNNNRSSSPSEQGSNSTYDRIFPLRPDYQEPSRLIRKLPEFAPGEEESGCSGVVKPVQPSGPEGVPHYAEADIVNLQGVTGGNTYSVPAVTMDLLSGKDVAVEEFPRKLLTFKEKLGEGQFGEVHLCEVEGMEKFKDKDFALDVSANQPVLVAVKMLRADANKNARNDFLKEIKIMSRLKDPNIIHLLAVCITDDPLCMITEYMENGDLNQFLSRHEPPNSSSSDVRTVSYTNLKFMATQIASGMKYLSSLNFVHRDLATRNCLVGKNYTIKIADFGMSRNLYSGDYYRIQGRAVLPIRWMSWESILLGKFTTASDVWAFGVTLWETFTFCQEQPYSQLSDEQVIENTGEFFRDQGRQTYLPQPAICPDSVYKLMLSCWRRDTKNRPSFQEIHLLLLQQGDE
RIOK1 (human), sequence (Q9BRS2 whole entry, looked up): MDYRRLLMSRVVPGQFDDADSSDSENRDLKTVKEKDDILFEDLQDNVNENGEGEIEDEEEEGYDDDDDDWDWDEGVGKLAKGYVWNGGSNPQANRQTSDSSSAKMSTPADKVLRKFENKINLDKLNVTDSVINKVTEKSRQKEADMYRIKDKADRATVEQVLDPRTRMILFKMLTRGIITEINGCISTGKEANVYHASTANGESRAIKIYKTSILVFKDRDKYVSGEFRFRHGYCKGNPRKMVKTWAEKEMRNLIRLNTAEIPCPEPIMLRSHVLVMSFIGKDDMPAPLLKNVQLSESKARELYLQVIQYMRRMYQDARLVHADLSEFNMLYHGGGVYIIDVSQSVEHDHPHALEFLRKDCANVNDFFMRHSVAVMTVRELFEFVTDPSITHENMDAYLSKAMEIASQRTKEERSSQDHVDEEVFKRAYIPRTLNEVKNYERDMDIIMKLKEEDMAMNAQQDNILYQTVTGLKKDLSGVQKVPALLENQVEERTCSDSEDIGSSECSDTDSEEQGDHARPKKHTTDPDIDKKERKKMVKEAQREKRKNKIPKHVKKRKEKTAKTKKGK

Compound | kinase still bound, per cent of control (MAPK1 (human)) [%] | kinase still bound, per cent of control (HUNK (human)) [%] | kinase still bound, per cent of control (MARK1 (human)) [%] | kinase still bound, per cent of control (MAPKAPK2 (human)) [%] | kinase still bound, per cent of control (RIOK1 (human)) [%] | kinase still bound, per cent of control (PLK1 (human)) [%] | kinase still bound, per cent of control (DDR2 (human)) [%] | kinase still bound, per cent of control (TAOK1 (human)) [%] | kinase still bound, per cent of control (RPS6KA4 KD2 (human)) [%] | kinase still bound, per cent of control (MAP2K5 (human)) [%] | kinase still bound, per cent of control (MYLK4 (human)) [%] | kinase still bound, per cent of control (TEC (human)) [%] | kinase still bound, per cent of control (DYRK1B (human)) [%] | kinase still bound, per cent of control (PIK3C2G (human)) [%] | kinase still bound, per cent of control (SGK110 (human)) [%] | kinase still bound, per cent of control (TGFBR2 (human)) [%] | kinase still bound, per cent of control (SGK3 (human)) [%] | kinase still bound, per cent of control (PHKG1 (human)) [%] | kinase still bound, per cent of control (CDK17 (human)) [%] | kinase still bound, per cent of control (STK32A (human)) [%] | also measured
N#CCNC(=O)c1ccc(-c2ccnc(Nc3ccc(N4CCOCC4)cc3)n2)cc1 | 93 | 100 | 66 | 100 | 1 | 100 | 100 | 32 | 100 | 100 | 0 | 100 | 90 | 100 | 83 | 89 | 59 | 78 | 55 | 100 | kinase still bound, per cent of control (DMPK (human)): 37%; kinase still bound, per cent of control (MARK3 (human)): 16%; kinase still bound, per cent of control [1]: 61%; kinase still bound, per cent of control (ICK (human)): 100%; kinase still bound, per cent of control (BMPR1A (human)): 3.6%; kinase still bound, per cent of control (MARK4 (human)): 42%; kinase still bound, per cent of control (STK38 (human)): 59%; kinase still bound, per cent of control (CAMKK2 (human)): 51%; kinase still bound, per cent of control (MAP2K2 (human)): 100%; kinase still bound, per cent of control (EIF2AK2 (human)): 47%; kinase still bound, per cent of control (STK16 (human)): 6.2%; kinase still bound, per cent of control (STK36 (human)): 95%; kinase still bound, per cent of control (FRK (human)): 98%; kinase still bound, per cent of control (EPHB6 (human)): 58%; kinase still bound, per cent of control (TEK (human)): 100%; kinase still bound, per cent of control (LYN (human)): 94%; kinase still bound, per cent of control (ABL2 (human)): 57%; kinase still bound, per cent of control (MAP3K15 (human)): 68%; kinase still bound, per cent of control (FLT3 (human)): 100%
COCC(=O)NC/C=C/c1ccc2ncnc(Nc3ccc(Oc4ccc(C)nc4)c(C)c3)c2c1 | 100 | 70 | 100 | 100 | 91 | 81 | 100 | 94 | 100 | 0.2 | 100 | 73 | 92 | 24 | 100 | 94 | 100 | 100 | 100 | 100 | kinase still bound, per cent of control (PRKCH (human)): 100%; kinase still bound, per cent of control (MARK3 (human)): 100%; kinase still bound, per cent of control (ICK (human)): 100%; kinase still bound, per cent of control (BMPR1A (human)): 17%; kinase still bound, per cent of control (MARK4 (human)): 100%; kinase still bound, per cent of control (STK38 (human)): 73%; kinase still bound, per cent of control (CAMKK2 (human)): 85%; kinase still bound, per cent of control (MAP2K2 (human)): 11%; kinase still bound, per cent of control (EIF2AK2 (human)): 99%; kinase still bound, per cent of control (STK36 (human)): 100%; kinase still bound, per cent of control (FRK (human)): 100%; kinase still bound, per cent of control (EPHB6 (human)): 74%; kinase still bound, per cent of control (TEK (human)): 100%; kinase still bound, per cent of control (LYN (human)): 92%; kinase still bound, per cent of control (ABL2 (human)): 100%; kinase still bound, per cent of control (MAP3K15 (human)): 100%; kinase still bound, per cent of control (FLT3 (human)): 100%
C[C@@H](Oc1cc(-c2cnn(C3CCNCC3)c2)cnc1N)c1c(Cl)ccc(F)c1Cl | 100 | 74 | 36 | 100 | 3.4 | 83 | 0 | 1.2 | 50 | 54 | 86 | 100 | 84 | 22 | 3.4 | 100 | 100 | 100 | 62 | 86 | kinase still bound, per cent of control (PRKCH (human)): 100%; kinase still bound, per cent of control (DMPK (human)): 1.6%; kinase still bound, per cent of control (BMPR1A (human)): 0.15%; kinase still bound, per cent of control (MARK4 (human)): 48%; kinase still bound, per cent of control (STK38 (human)): 68%; kinase still bound, per cent of control (MAP2K2 (human)): 54%; kinase still bound, per cent of control (EIF2AK2 (human)): 43%; kinase still bound, per cent of control (STK16 (human)): 63%; kinase still bound, per cent of control (STK36 (human)): 100%; kinase still bound, per cent of control (FRK (human)): 15%; kinase still bound, per cent of control (EPHB6 (human)): 0.2%; kinase still bound, per cent of control (TEK (human)): 1%; kinase still bound, per cent of control (LYN (human)): 13%; kinase still bound, per cent of control (ABL2 (human)): 0.85%; kinase still bound, per cent of control (MAP3K15 (human)): 73%; kinase still bound, per cent of control (FLT3 (human)): 7.8%
CNC(=O)c1cc(Oc2ccc(NC(=O)Nc3ccc(Cl)c(C(F)(F)F)c3)cc2)ccn1 | 100 | 70 | 100 | 100 | 100 | 100 | 14 | 23 | 89 | 0.3 | 100 | 100 | 92 | 80 | 94 | 35 | 82 | 90 | 17 | 100 | kinase still bound, per cent of control (PRKCH (human)): 100%; kinase still bound, per cent of control (DMPK (human)): 100%; kinase still bound, per cent of control (MARK3 (human)): 74%; kinase still bound, per cent of control (ICK (human)): 92%; kinase still bound, per cent of control (BMPR1A (human)): 100%; kinase still bound, per cent of control (MARK4 (human)): 100%; kinase still bound, per cent of control (STK38 (human)): 85%; kinase still bound, per cent of control (CAMKK2 (human)): 72%; kinase still bound, per cent of control (MAP2K2 (human)): 86%; kinase still bound, per cent of control (EIF2AK2 (human)): 73%; kinase still bound, per cent of control (STK16 (human)): 100%; kinase still bound, per cent of control (STK36 (human)): 23%; kinase still bound, per cent of control (EPHB6 (human)): 3%; kinase still bound, per cent of control (LYN (human)): 16%; kinase still bound, per cent of control (ABL2 (human)): 35%; kinase still bound, per cent of control (MAP3K15 (human)): 100%; kinase still bound, per cent of control (FLT3 (human)): 0.45%

Reference: the kinase profiling compilation of Christmann-Franck et al. (2016)
